Legend:
acid sphingomyelinase = target: T1, acid sphingomyelinase (Mus musculus, UniProt Q04519); assay: Activity of acid sphingomyelinase in lung extracts of treated mice; type: in vivo
T1 construct: from tissue; host or cells: lung homogenate of wild-type and Cftr-deficient mice
T1 sequence (Q04519 45-627): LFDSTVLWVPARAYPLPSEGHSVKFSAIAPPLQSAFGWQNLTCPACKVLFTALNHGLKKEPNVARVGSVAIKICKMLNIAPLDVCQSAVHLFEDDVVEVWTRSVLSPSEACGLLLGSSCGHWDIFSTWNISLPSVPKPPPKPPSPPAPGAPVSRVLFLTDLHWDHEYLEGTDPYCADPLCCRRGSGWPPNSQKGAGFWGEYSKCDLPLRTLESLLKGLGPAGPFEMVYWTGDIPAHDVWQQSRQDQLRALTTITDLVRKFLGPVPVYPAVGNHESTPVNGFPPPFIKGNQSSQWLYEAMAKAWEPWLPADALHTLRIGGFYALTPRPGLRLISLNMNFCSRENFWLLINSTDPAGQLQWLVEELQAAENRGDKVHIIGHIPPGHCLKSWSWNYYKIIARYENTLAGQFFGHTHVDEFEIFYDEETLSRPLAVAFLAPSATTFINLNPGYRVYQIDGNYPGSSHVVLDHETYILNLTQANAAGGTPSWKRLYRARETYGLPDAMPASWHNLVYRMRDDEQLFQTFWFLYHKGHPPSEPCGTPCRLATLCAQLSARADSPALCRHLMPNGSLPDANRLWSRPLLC
Method: The inhalation was carried out with the aid of an inhaler (Pariboy® SX). The liquid reservoir in this inhaler was connected to an air nozzle, whereby it was possible to produce a fine aerosol which was inhaled through a mask by the mice. For this, the noses of the experimental animals were pressed manually into the opening of the mask for 10 minutes. This permitted excellent control of the inhalation process. All mice were subjected to an inhalation process 3 times at an interval of 12 hours. The lungs were shock-frozen, homogenized under liquid nitrogen and subsequently transferred to a buffer of 250 mM sodium acetate (pH 5.0), 1.3 mM EDTA and 1% NP40. The homogenizate was then subjected to ultrasound treatment (ultrasonic processor tip sonicator) a total of three times. Subsequently, an aliquot of the samples was diluted with 250 mM sodium acetate (pH 5.0), 1.3 mM EDTA 0.1% NP40 and incubated with 0.05 μCi of [^14C]sphingomyelin per sample (52 mCi/mmol; […] The radioactive sample of [^14C]sphingomyelin was dried, resuspended in 250 mM sodium acetate (pH 5.0), 1.3 mM EDTA and 0.1% NP40 and subsequently subjected to ultrasound treatment for 10 minutes, before it was added to the homogenized samples. The samples were incubated for 30 minutes in total at about 37° C. Subsequently, the enzymatic reaction was ended by extraction (extraction with a solvent mixture of chloroform and methanol in the volume ratio chloroform/methanol 2:1). The samples were then centrifuged and an aliquot of the aqueous phase was in each case subjected to scintillation counting to determine the release of [^14C]phosphorylcholine from [^14C] sphingomyelin. Wild-type mice and Cftr-deficient mice (Cftr-knockout mice) inhaled a solution of 4 mg/l of amitriptyline, 12.5 mg/l of trimipramine, 9 mg/l of desipramine, 8 mg/l of chlorprothixene, 4.5 mg/l of fluoxetine, 5 mg/l of amlodipine and 35 mg/l of sertraline. All substances were dissolved in water or DMSO for this and subsequently diluted at least 1:100 (for DMSO: at least 1:1000) in 0.9% sodium chloride solution. The mice inhaled the solutions for 10 minutes. An inhaler (Pariboy®) was used for the inhalation. In the course of the inhalation time, approximately 2 ml of the solutions administered were atomized. The inhalation was carried out a total of three times at intervals of 12 hours. The lungs were removed 60 minutes after the last inhalation, and the activity of the acid sphingomyelinase was determined in the lung extracts. Wild-type mice and Cftr-deficient mice were in each case inhaled 1 ml of an amitriptyline solution (4 mg/l of H2O) for 20 minutes with the aid of a customary pharmacy inhalation device. The amount of amitriptyline actually administered was therefore about 4 μg. In parallel to this, other wild-type mice and Cftr-deficient mice were in each case administered 100 μl of an amitriptyline solution (2.5 g/l of H2O), so that the amount of amitriptyline actually administered in these animals was 250 μg. The injections were administered twice daily over 2 days. In the case of the inhalative treatment, the lungs of the mice were extracted 60 minutes or 12 hours after ending the inhalation, where in the case of the 12-hour experiments the inhalation was repeated after 6 hours. In the case of the mice treated by an injection solution, their lungs were removed 12 hours after the last injection.

ceramide = assay: Pulmonary ceramide concentration in lung extracts of treated mice; type: in vivo
Method: The inhalation was carried out with the aid of an inhaler (Pariboy® SX). The liquid reservoir in this inhaler was connected to an air nozzle, whereby it was possible to produce a fine aerosol which was inhaled through a mask by the mice. For this, the noses of the experimental animals were pressed manually into the opening of the mask for 10 minutes. This permitted excellent control of the inhalation process. All mice were subjected to an inhalation process 3 times at an interval of 12 hours.
After killing the experimental animals, the lungs were removed, homogenized under liquid nitrogen and added to a mixture of chloroform, methanol and 1N hydrochloric acid (100:100:1, v/v/v). After addition of 200 μl of H2O, the samples were centrifuged for 5 minutes (14,000 rpm, rotations per minute). The lower phase was then collected, dried and subjected to an alkaline hydrolysis of diacylglycerol in 0.1 N methanolic potassium hydroxide solution at 37° C. for 60 minutes. The samples were extracted again, and the lower phase was dried and subsequently resuspended in 20 μl of a detergent solution (7.5% (w/v) of n-octylglucopyranoside, 5 mM cardiolipin in 1 mM diethylenetriaminepentaacetic acid (DTPA)). After an ultrasound treatment (10 minutes), the samples were added to 70 μl of a reaction mixture which contained 10 μl of diacylglycerol kinase (GE Healthcare Europe, Munich, Germany), 0.1 M imidazole/HCl (pH 6.6), 0.2 mM diethylenetriaminepentaacetic acid (pH 6.6), 70 mM sodium chloride, 17 mM magnesium chloride, 1.4 mM EGTA, 2 mM DTT, 1 μM ATP and 10 μCi of [^32P]γATP. The kinase reaction was carried out for 30 minutes at room temperature and subsequently ended by addition of 1 ml of chloroform:methanol:1 N HCl (100:100:1, v/v/v), 170 μl of buffered saline solution (135 mM sodium chloride, 1.5 mM calcium chloride, 0.5 mM magnesium chloride, 5.6 mM glucose, 10 mM HEPES, pH 7.2) and 30 μl of a 100 mM EDTA solution. The samples were then vortexed and the resulting phases were separated. […] The incorporation of [^32P] in ceramide was quantified by means of liquid scintillation counting, since the spots […]. The amounts of ceramide were determined by comparison with a standard curve using C16-ceramide as substrate.
(§1) Wild-type mice and Cftr-deficient mice were inhaled with a solution of 4 mg/l of amitriptyline, 12.5 mg/l of trimipramine, 9 mg/l of desipramine, 8 mg/l of chlorprothixene, 4.5 mg/l of fluoxetine, 5 mg/l of amlodipine and 35 mg/l of sertraline. […] The lungs were removed from the experimental animals 60 minutes after the inhalation, and the pulmonary ceramide concentration in the lung extracts was determined. […]

Pseudomonas aeruginosa = assay: Susceptibility to infection: Pseudomonas aeruginosa bacterial count in the lung after intranasal infection; type: in vivo, mice
Method: The bacteria were cultured for 14 to 14.5 hours on TSA agar plates (Becton Dickinson). Fresh plates were used for at most 2 weeks for this. The bacteria were then transferred to Erlenmeyer flasks in 40 ml of a prewarmed and sterile buffer (TSB, Becton Dickinson). The optical density (OD) or extinction was adjusted to 0.225 (corresponds to 5.5×10^8 CFU/ml) and the bacteria were incubated for 60 minutes at 37° C. with shaking at 125 rpm. The quality of the agar plates and of TSB and the shaking speed were crucial for the obtainment of reproducible results. In this way, it was possible to obtain a Pseudomonas aeruginosa population exactly in the early log phase (the bacteria replicated approximately by 10-fold within an incubation time of 60 minutes). The fact that the bacteria were bacteria of the early log phase was extremely important to obtain reproducible conditions for the subsequent infection with the experimental animals. The bacteria were centrifuged at 2800 rpm (1600×g) in a 50 ml tube. The supernatant was then carefully removed and the bacteria were resuspended in 10 ml of RPMI-1640, supplemented with 10 mM HEPES (pH 7.3). The suspension was transferred to a 15 ml tube and subsequently washed twice. Finally, the bacteria were resuspended in prewarmed HEPES/salt (HS; 132 mM NaCl, 20 mM HEPES (pH 7.4), 5 mM KCl, 1 mM CaCl2, 0.7 mM MgCl2, 0.8 mM MgSO4) and the bacterial optical density was determined. The bacteria were then diluted with prewarmed H/S to a concentration of 10^8 CFU/20 μl . The mice were then infected within the next 10 minutes. For this purpose, a syringe with a volume of 1 ml and a 30 gauge needle was used. The mice were anesthetized in ether for 10 to 15 seconds. Following this, the needle was immediately inserted 2 mm into the noses of the mice and the bacteria were carefully injected. Between the first and the last mouse which were infected, a time interval of at most 10 minutes was allowed to pass to avoid variations in the formation of viable bacterial colonies in this way. […] Subsequently, the number of bacteria in the lung was measured as a measure of the sensitivity of the mice to developing a Pseudomonas aeruginosa infection. […] The bacterial colonies were counted after 15 hours growth at 37° C. as a measure of the number of pulmonary bacteria and thus as a measure of an infection.
as §1, with “susceptibility to infection of the experimental animals” for “pulmonary ceramide concentration”, “relation to Pseudomonas aeruginosa” for “the lung extracts”

Structure (SMILES): CN(C)CCC=C1c2ccccc2CCc2ccccc21 [amitriptyline]
- enzyme activity of acid sphingomyelinase in lung extracts (acid sphingomyelinase; Cftr-deficient mice, 12 h after intraperitoneal injection of 250 micrograms, twice daily over 2 days): 151±17 pmol/min/mg of protein
- enzyme activity of acid sphingomyelinase in lung extracts (acid sphingomyelinase; Cftr-deficient mice, lungs extracted 60 min after inhalation of 1 ml amitriptyline solution (4 mg/l)): 148±17 pmol/min/mg of protein
- enzyme activity of acid sphingomyelinase in lung extracts (acid sphingomyelinase; Cftr-deficient mice, lungs extracted 12 h after inhalation of 1 ml amitriptyline solution (4 mg/l)): 167±9 pmol/min/mg of protein
- enzyme activity of acid sphingomyelinase in lung extracts (acid sphingomyelinase; wild-type mice, 12 h after intraperitoneal injection of 250 micrograms, twice daily over 2 days): 168±19 pmol/min/mg of protein
- enzyme activity of acid sphingomyelinase in lung extracts (acid sphingomyelinase; wild-type mice, lungs extracted 60 min after inhalation of 1 ml amitriptyline solution (4 mg/l)): 176±18 pmol/min/mg of protein
- enzyme activity of acid sphingomyelinase in lung extracts (acid sphingomyelinase; wild-type mice, lungs extracted 12 h after inhalation of 1 ml amitriptyline solution (4 mg/l)): 200±14 pmol/min/mg of protein
- ceramide concentration in lung extracts (ceramide; Cftr-deficient mice, 12 h after inhalation of 1 ml amitriptyline solution (4 mg/l)): 5.2±0.79 pmol/μg of protein
- ceramide concentration in lung extracts (ceramide; Cftr-deficient mice, parenterally treated, 12 h after intraperitoneal injection of 250 micrograms): 4.9±0.7 pmol/μg of protein
- ceramide concentration in lung extracts (ceramide; wild-type mice, 12 h after inhalation of 1 ml amitriptyline solution (4 mg/l)): 1.6±0.3 pmol/μg of protein
- ceramide concentration in lung extracts (ceramide; wild-type mice, parenterally treated, 12 h after intraperitoneal injection of 250 micrograms): 1.5±0.4 pmol/μg of protein
- bacterial count in the lungs (Pseudomonas aeruginosa; Cftr-deficient mice, treated by inhalation (4 mg/l solution), 2 h after intranasal infection with 1×10^8 CFU P. aeruginosa strain 762): 12300±4075 CFU
- bacterial count in the lungs (Pseudomonas aeruginosa; Cftr-deficient mice, treated by injection solution (250 micrograms i.p.), 2 h after intranasal infection): 11250±2360 CFU
- bacterial count in the lungs (Pseudomonas aeruginosa; wild-type mice, treated by inhalation (4 mg/l solution), 2 h after intranasal infection with 1×10^8 CFU P. aeruginosa strain 762): 3600±2892 CFU
- bacterial count in the lungs (Pseudomonas aeruginosa; wild-type mice, treated by injection solution (250 micrograms i.p.), 2 h after intranasal infection): 2780±1740 CFU
